Where a name gives a salt, the structure may show the parent alone. Read-outs that look alike come from different tables or passages of the source. One block for each molecule: values may come before it.
What was measured:
[1] = biological target: T1, thymidine phosphorylase obtained from human placenta (Homo sapiens, UniProt P19971); test: Test 1 (Thymidine Phosphorylase Inhibiting Effects); format: biochemical
T1 construct: thymidine phosphorylase obtained from human placenta in a highly purified form; from tissue; host or cells: human placenta
T1 sequence (P19971 11-482): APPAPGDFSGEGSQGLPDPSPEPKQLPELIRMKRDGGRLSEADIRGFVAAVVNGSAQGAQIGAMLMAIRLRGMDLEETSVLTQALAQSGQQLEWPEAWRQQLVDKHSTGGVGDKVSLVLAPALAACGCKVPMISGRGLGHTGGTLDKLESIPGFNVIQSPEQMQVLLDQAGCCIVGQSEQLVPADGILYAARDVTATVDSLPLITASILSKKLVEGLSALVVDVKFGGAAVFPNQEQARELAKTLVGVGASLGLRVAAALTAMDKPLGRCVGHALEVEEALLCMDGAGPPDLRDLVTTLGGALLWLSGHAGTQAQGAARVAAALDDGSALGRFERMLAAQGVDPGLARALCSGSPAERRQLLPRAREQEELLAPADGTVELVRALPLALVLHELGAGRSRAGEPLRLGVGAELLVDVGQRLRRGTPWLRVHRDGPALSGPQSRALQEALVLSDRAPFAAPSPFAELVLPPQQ

[2] = system: TMK-1 (human gastric cancer) cells; test: Test 2 (Effects of Life Prolongation on Liver Metastasis Model); format: in vivo, BALB/c-nu/nu male mice; human gastric cancer cells; conditions: oral, everyday for 42 days; for Average # of survival time: control 63.4 days; for ILS (%) (increase of life span): vs control, 120 days observation
Experimental: Effects of life prolongation were assessed using a liver metastasis model system consisting of BALB/c-nu/nu male mice (seven weeks old) each of which had been transplanted in the spleen thereof with 1×10^6 cells/mouse of TMK-1 (human gastric cancer) cells.
Specific experimental procedures were carried out by modifying the method proposed by Morikawa et al. in Cancer Research, 48, 1943-1948 (1988). Described specifically, cells which had been cultured in vitro were collected with 0.25%(w/v) trypsin-0.2%(w/v) EDTA and were then washed with a physiological phosphate buffer. The cells were next counted, followed by dilution to 1×10^6 cells/50 μl. Under anesthetization with 30 mg/kg of "Nembutal", each of the mice was incised at its left abdominal region and the spleen was then pulled out. The cell suspension of 10^6 cells/50 μl which had been prepared above was injected in an amount of 50 μl into the spleen by a syringe fitted with a 28-gauge injection needle. After the mouse was left over for 2 minutes, the blood vessel to the spleen was tied at two positions by ligating clips, respectively, and the spleen was cut off. The excised abdominal region was closed with a suturing stapler. Compound No. 29 of the present invention, in a form dissolved in distilled water, was orally administered everyday for 42 days from the day following the transplant. Using the increase of life span (ILS%) of a control as a reference, an assessment was conducted by observing the mouse for 120 days after the transplant of the cells to confirm its survival. The increase of life span (ILS%) was calculated in accordance with the following formula. [formula]

[3] = system: human colon cancer strain Co-3; test: Test 3 (Metastasis Inhibiting Effects on Liver Metastasis Model); format: in vivo, SPF KSN-nu/nu male mouse; human colon cancer; conditions: oral; for Number of metastasized mice: 6 courses (5 days on, 2 days off), control 4/6; for Metastasis inhibition rate (%): liver metastasis, 6 courses, vs control
Experimental: About 100 mm^3 of human colon cancer strain Co-3 were transplanted to the cecum of each SPF KSN-nu/nu male mouse (seven weeks old). Two weeks after the transplant, a primary carcinoma lesion was removed by surgically cutting off the cecum. […] The administration was conducted for 6 courses, each consisting of administration of 5 straight days followed by a suspension of administration for 2 days. To mice in a control, only 0.5% (w/v) hydroxypropyl methylcellulose solution was orally administered. On the day following the completion of the administration, each mouse was sacrificed and metastasis to the liver was determined based on autopsy.

[4] = inhibition of [6-^3H]thymine formation from [6-^3H]thymidine, 37° C., 5 minutes, pH 7.4, read-out: IC50

IC50 [1, 4]: 1.2 µM
Compound: O=c1[nH]c(CN2C=NCC2)c(Cl)c(=O)[nH]1 [Compound 50, 5-chloro-6-(2-imidazolin-1-ylmethyl)-uracil hydrochloride]

Compound: Cn1ccn(Cc2[nH]c(=O)[nH]c(=O)c2Cl)c1=N [Compound 20]
IC50 [1]: 0.24 µM

IC50 [1, 4]: 1.3 µM
Compound: O=c1[nH]c(CN2CCCC2)c(I)c(=O)[nH]1 [Compound 3]

IC50 [1, 4]: 0.27 µM
Compound: N=C(N)NCc1[nH]c(=O)[nH]c(=O)c1Cl [Compound 68, 5-chloro-6-(1-guanidino)methyluracil hydrochloride]

IC50 [1, 4]: > 1000 µM
Compound: Cc1cn(COCCO)c(=O)[nH]c1=O [Acyclothymidine, reference compound]

IC50 [1, 4]: 130 µM
Compound: N#Cc1ccc(O)[nH]c1=O [3-Cyano-2,6-dihydroxypyridine, reference compound]

IC50 [1, 4]: 2.6 µM
Compound: O=c1[nH]c(CN2CCC2)c(Cl)c(=O)[nH]1 [Compound 6, 5-chloro-6-(1-azetidinylmethyl)uracil]

Compound: N=C1NCCN1Cc1[nH]c(=O)[nH]c(=O)c1Br [Compound 48, 5-bromo-6-(1-(2-iminoimidazolidinyl)methyl) uracil]
IC50 [1]: 0.03 µM

IC50 [1, 4]: 0.15 µM
Compound: CNC(=N)SCc1[nH]c(=O)[nH]c(=O)c1Cl [Compound 57]

IC50 [1, 4]: 0.1 µM
Compound: N#Cc1c(CSC(=N)N)[nH]c(=O)[nH]c1=O [Compound 56, 2-(5-cyanouracil-6-ylmethyl)isothiourea hydrochloride]

Compound: N=C1CCCN1Cc1[nH]c(=O)[nH]c(=O)c1Cl [Compound 29, 5-chloro-6-(1-(2-iminopyrrolidinyl)-methyl)uracil hydrochloride]
Average # of survival time ([2]; 50 mg/kg/day, N = 8): 88.5 days
ILS (%) (increase of life span) ([2]; 50 mg/kg/day): 39.6%
Average # of survival time ([2]; 100 mg/kg/day, N = 9): 90.8 days
ILS (%) (increase of life span) ([2]; 100 mg/kg/day): 43.2%
Number of metastasized mice ([3]; 18.4 mg/kg/day): 2/6
Number of metastasized mice ([3]; 36.9 mg/kg/day): 1/6
Metastasis inhibition rate (%) ([3]; 18.4 mg/kg/day): 50%
Metastasis inhibition rate (%) ([3]; 36.9 mg/kg/day): 75%

Compound: CN1CCN(Cc2[nH]c(=O)[nH]c(=O)c2Cl)C1=N [Compound 34]
IC50 [1]: 0.046 µM

IC50 [1, 4]: 1.5 µM
Compound: CC(=N)NCc1[nH]c(=O)[nH]c(=O)c1Cl [Compound 73, N-(5-chlorouracil-6-ylmethyl)-acetamidine hydrochloride]

IC50 [1, 4]: 1 µM
Compound: O=c1[nH]c(Cn2ccnc2)c(Cl)c(=O)[nH]1 [Compound 51, 5-chloro-6-(1-imidazolylmethyl)uracil hydrochloride]

IC50 [1, 4]: 0.51 µM
Compound: O=c1[nH]c(CN2CCCC2)c(Br)c(=O)[nH]1 [Compound 2, 5-bromo-6-(1-pyrrolidinylmethyl)uracil]

Compound: N#Cc1c(CN2CCCC2=N)[nH]c(=O)[nH]c1=O [Compound 33, 5-cyano-6-(1-(2-iminopyrrolidinyl)methyl)uracil]
IC50 [1]: 0.017 µM

IC50 [1, 4]: 2.2 µM
Compound: O=c1[nH]c(CN2CCCC2)c(Cl)c(=O)[nH]1 [Compound 1, 5-chloro-6-(1-pyrrolidinylmethyl)uracil]

Compound: Cc1c(CN2CCCC2=N)[nH]c(=O)[nH]c1=O [Compound 32]
IC50 [1]: 0.12 µM

From patent US6255314A, “Cancerous metastasis inhibitors containing uracil derivatives” (Taiho Charmaceutical Co., Ltd., priority 1996, dated 2001)
